Broadly, the TGI is the concentration at which net growth stops. The low end stands for greater sensitivity of the cells, the high end for lower sensitivity of the cells. One may read the GI50 as the concentration at which growth is held to half of that of the control.

Where “and” joins values, the source holds several entries; their conditions need not be identical. Equal values may be shown once.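 A five-concentration, 48-hour dose response in 96-well plates underlies each endpoint, interpolated linearly between surrounding concentrations. At the GI50, growth is halved. At the TGI there is no net growth.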

One assay has as its system DU-145 prostate. The assay can be described thus: DTP human tumour cell line panel, 48 h.
Compound `CSc1nc(SC)c2c(CN=[N+]=[N-])c(Br)n(Cc3ccccc3)c2n1` returned a TGI of over 100 µM.

A further assay has as its system U251 CNS. The assay can be described thus: DTP human tumour cell line panel, 48 h.
For the compound `C[C@@H]1CC[C@H]2C(COCC3=C(C(F)(F)F)O[C@@H]4O[C@@]5(C)CC[C@H]6[C@H](C)CC[C@@H]3[C@@]46OO5)=C(C(F)(F)F)O[C@@H]3O[C@@]4(C)CC[C@@H]1[C@]32OO4`, the GI50 is under 0.01 µM and the TGI is over 100 µM.

Regarding `CCOc1ccc(NC(=O)CC2Sc3ccccc3NC2=O)cc1` (stereo not drawn), the TGI was over 100 µM.

As for `Cn1cc(NC(=O)c2cc(NC(=O)CCCCCCCCCCC(=O)Nc3cc(C(=O)Nc4cc(C(=O)NCCC(=N)N)n(C)c4)n(C)c3)cn2C)cc1C(=O)NCCC(=N)N`, the TGI is over 100 µM.

Turning to `C1COCCN1.C1COCCN1.N.N.[Cl-].[Pt+2]`, the GI50 is over 100 µM and the total growth inhibition concentration (TGI) was over 100 µM.

With `CNC(=O)c1ccccc1CC1(O)c2ccccc2Oc2ccccc21`, the GI50 is 19.6 µM and the total growth inhibition concentration (TGI) amounted to 59.6 µM.

On to `Cc1ccccc1C(C#N)C(=O)C(=O)Nc1nc([N+](=O)[O-])cs1` (stereo not drawn), for which the TGI is over 100 µM.

Compound `COC(=O)C(c1[nH]nc2ccccc12)C(C(=O)OC)c1[nH]nc2ccccc12` (stereo not drawn) had a TGI of over 100 µM.

Take `C#CCNC(=O)NC(CCCNC(=O)OCc1ccccc1)C(=O)OCc1ccccc1` (stereo not drawn): the TGI is over 100 µM.

In the case of `COc1ccc2cc1Oc1ccc(cc1)C[C@H]1c3cc(c(OC)cc3CCN1C)Oc1c(OC)c(OC)cc3c1[C@H](C2)N(C)CC3`, the GI50 was 3.92 µM; the TGI was 15.1 µM and 13.5 µM and > 100 µM.

For `O=c1[nH]c2ccccc2cc1C(Cl)=C(Cl)Cl`, the TGI was over 100 µM.

The compound `O=[N+]([O-])[C@@H]1C2C=CC(C2)[C@H]1Cl` (stereo partly drawn) had a TGI of over 100 µM.

Turning to `O=C(c1cccs1)c1c(C(F)(F)F)n([O-])c2ccccc2[n+]1=O`, the GI50 is 1.07 µM and the TGI stood at 2.79 µM.

The compound `N#CC1(c2nc3ccccc3o2)C(=O)C(=O)N(C2C3CC4CC(C3)CC2C4)C(=O)C1=O` (stereo not drawn) registered a TGI of over 100 µM.

Compound `O=C1NC(c2ccc(O)cc2)C2CCC1C2` (stereo not drawn) gave a TGI of over 100 µM.

`CCOC(=O)C1(CC)CCCCC(=O)N1` (stereo not drawn) returned a TGI of over 100 µM.

`C=CC1=CSNN1` came in with a TGI of over 100 µM.

With `CSc1nc(SC)c2c(CN=[N+]=[N-])c(Br)n(Cc3ccccc3)c2n1`, the TGI was over 100 µM.

`O=C(C#Cc1c[nH]c(=O)[nH]c1=O)c1ccccc1Cl`: the TGI is 35.1 µM.

Regarding `CC(=O)OC1=C2CC3(C)OC(=O)CC(C)(C)C3=CC=C2C=C(C(C)C)C1=O` (stereo not drawn), the TGI turned out to be 2.99 µM.

With `CCCCCCCCCCCCCCCC(=O)NCC(COP(=O)([O-])OCC[N+](C)(C)C)OCC` (stereo not drawn), the TGI was 14.4 µM.

With `COC(=O)C1OC(O[C@H]2CCC3(C)C(CCC4(C)C3CC=C3C5CC(C)(C)CCC5(C(=O)O)CC[C@]34C)C2(C)C)C(O)C(OC2OC(CO)C(O)C(O)C2O)C1O` (stereo partly drawn), the GI50 was 6.08 µM and the TGI was 10.9 µM.

Take `O=C1NC2(CCCC2)C(=O)C12CCCC2`: the TGI is over 100 µM.

In turn, `O=C1CCCN(c2ccccc2)N1` gave a TGI of over 100 µM.

In turn, `CN(C)/C(=N/C(=S)Nc1ccccc1)SCc1ccccc1` displayed a TGI of over 100 µM.

In the case of `CCOC(=O)C1=C(C)Nc2ccccc2S1`, the TGI is over 100 µM.

In the case of `CCOC(=O)CC1=Nc2ccccc2SC1`, the TGI was over 100 µM.

Regarding `C=CCSC[C@H](NC(=O)COc1ccccc1)C(=O)NC(C(=O)OCc1ccc([N+](=O)[O-])cc1)=C(C)C`, the TGI is over 100 µM.

The next assay deals with COLO 205 colon. The assay can be described thus: DTP human tumour cell line panel, 48 h.
`C[C@@H]1CC[C@H]2C(COCC3=C(C(F)(F)F)O[C@@H]4O[C@@]5(C)CC[C@H]6[C@H](C)CC[C@@H]3[C@@]46OO5)=C(C(F)(F)F)O[C@@H]3O[C@@]4(C)CC[C@@H]1[C@]32OO4`: the GI50 is under 0.01 µM and the TGI is 0.0835 µM.

As to `CCOc1ccc(NC(=O)CC2Sc3ccccc3NC2=O)cc1` (stereo not drawn), the TGI was over 100 µM.

On to `Cn1cc(NC(=O)c2cc(NC(=O)CCCCCCCCCCC(=O)Nc3cc(C(=O)Nc4cc(C(=O)NCCC(=N)N)n(C)c4)n(C)c3)cn2C)cc1C(=O)NCCC(=N)N`, for which the TGI was over 100 µM.

As to `C1COCCN1.C1COCCN1.N.N.[Cl-].[Pt+2]`, the GI50 was over 100 µM and the TGI is over 100 µM.

With `CNC(=O)c1ccccc1CC1(O)c2ccccc2Oc2ccccc21`, the GI50 was 3.99 µM and the TGI was determined as 15.9 µM.

Turning to `C#CCNC(=O)NC(CCCNC(=O)OCc1ccccc1)C(=O)OCc1ccccc1` (stereo not drawn), the TGI is over 100 µM.

Regarding `O=c1[nH]c2ccccc2cc1C(Cl)=C(Cl)Cl`, the TGI was over 100 µM.

Compound `O=[N+]([O-])[C@@H]1C2C=CC(C2)[C@H]1Cl` (stereo partly drawn) gave a TGI of over 100 µM.

Compound `COC(=O)C(C#N)=C1c2ccccc2Oc2ccccc21` yielded a TGI of over 100 µM.

In the case of `O=C(c1cccs1)c1c(C(F)(F)F)n([O-])c2ccccc2[n+]1=O`, the GI50 is 1.66 µM and the concentration for total growth inhibition (TGI) turned out to be 9.89 µM.

The compound `N#CC1(c2nc3ccccc3o2)C(=O)C(=O)N(C2C3CC4CC(C3)CC2C4)C(=O)C1=O` (stereo not drawn) yielded a TGI of over 100 µM.

Turning to `O=C1NC(c2ccc(O)cc2)C2CCC1C2` (stereo not drawn), the TGI is over 100 µM.

`CCOC(=O)C1(CC)CCCCC(=O)N1` (stereo not drawn) showed a TGI of over 100 µM.

In the case of `C=CC1=CSNN1`, the TGI is over 100 µM.

Turning to `CSc1nc(SC)c2c(CN=[N+]=[N-])c(Br)n(Cc3ccccc3)c2n1`, the TGI is over 100 µM.

`O=C(C#Cc1c[nH]c(=O)[nH]c1=O)c1ccccc1Cl` gave a concentration for total growth inhibition (TGI) of 29.8 µM.

Compound `CC(=O)OC1=C2CC3(C)OC(=O)CC(C)(C)C3=CC=C2C=C(C(C)C)C1=O` (stereo not drawn) yielded a TGI of 2.05 µM.

`CCCCCCCCCCCCCCCC(=O)NCC(COP(=O)([O-])OCC[N+](C)(C)C)OCC` (stereo not drawn) gave a total growth inhibition concentration (TGI) of 5.1 µM.

For the compound `COC(=O)C1OC(O[C@H]2CCC3(C)C(CCC4(C)C3CC=C3C5CC(C)(C)CCC5(C(=O)O)CC[C@]34C)C2(C)C)C(O)C(OC2OC(CO)C(O)C(O)C2O)C1O` (stereo partly drawn), the GI50 was 8.64 µM and the TGI turned out to be 25.3 µM.

In the case of `O=C1NC2(CCCC2)C(=O)C12CCCC2`, the TGI was over 100 µM.

`CN(C)/C(=N/C(=S)Nc1ccccc1)SCc1ccccc1`: the concentration for total growth inhibition (TGI) was over 100 µM.

`CCOC(=O)C1=C(C)Nc2ccccc2S1` had a TGI of over 100 µM.

With `CCOC(=O)CC1=Nc2ccccc2SC1`, the TGI is over 100 µM.

`C=CCSC[C@H](NC(=O)COc1ccccc1)C(=O)NC(C(=O)OCc1ccc([N+](=O)[O-])cc1)=C(C)C` displayed a total growth inhibition concentration (TGI) of 39 µM.

(Values after PubChem BioAssay (NCI).)
